Target: T1, hTP (Homo sapiens, UniProt P21731)
T1 construct: expressed in transfected cells; host or cells: HEK-293(EBNA)
T1 sequence (P21731 1-343): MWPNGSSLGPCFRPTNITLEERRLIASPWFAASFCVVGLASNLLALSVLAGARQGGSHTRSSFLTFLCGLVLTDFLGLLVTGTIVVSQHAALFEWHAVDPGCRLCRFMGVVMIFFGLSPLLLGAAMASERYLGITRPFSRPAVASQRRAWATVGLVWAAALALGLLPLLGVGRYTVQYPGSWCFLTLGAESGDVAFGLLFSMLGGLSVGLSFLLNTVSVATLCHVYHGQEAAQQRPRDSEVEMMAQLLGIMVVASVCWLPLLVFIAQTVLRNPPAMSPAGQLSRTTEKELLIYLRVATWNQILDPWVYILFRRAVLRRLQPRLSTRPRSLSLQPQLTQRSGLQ
Assay: FLIPR calcium signal, hTP
Assay type: cell-based
Conditions: read-out: Other Receptors (EC50 in nM) hTP
Description: HEK-293(EBNA) cells, stably expressing one type or subtype of recombinant human prostaglandin receptors (prostaglandin receptors expressed: hDP/Gqs5; hEP1; hEP2/Gqs5; hEP3A/Gqi5; hEP4/Gqs5; hFP; hIP; hTP), were cultured in 100 mm culture dishes in high-glucose DMEM medium containing 10% fetal bovine serum, 2 mM l-glutamine, 250 μg/ml geneticin (G418) and 200 μg/ml hygromycin B as selection markers, and 100 units/ml penicillin G, 100 μg/ml streptomycin and 0.25 μg/ml amphotericin B.
Cells were seeded at a density of 5×10^4 cells per well in Biocoat® Poly-D-lysine-coated black-wall, clear-bottom 96-well plates (Becton-Dickinson) and allowed to attach overnight in an incubator at 37° C. Cells were then washed two times with HBSS-HEPES buffer (Hanks Balanced Salt Solution without bicarbonate and phenol red, 20 mM HEPES, pH 7.4) using a Denley Cellwash plate washer (Labsystems). After 45 minutes of dye-loading in the dark, using the calcium-sensitive dye Fluo-4 […] at a final concentration of 2 μM, plates were washed four times with HBSS-HEPES buffer to remove excess dye leaving 100 μl in each well. Plates were re-equilibrated to 37° C. for a few minutes.
Cells were excited with an Argon laser at 488 nm, and emission was measured through a 510-570 nm bandwidth emission filter (FLIPR™, Molecular Devices, Sunnyvale, Calif.). Drug solution was added in a 50 μl volume to each well to give the desired final concentration. The peak increase in fluorescence intensity was recorded for each well. On each plate, four wells each served as negative (HBSS-HEPES buffer) and positive controls (standard agonists: BW245C (hDP); PGE2 (hEP1; hEP2/Gqs5; hEP3A/Gqi5; hEP4/Gqs5); PGF2α (hFP); carbacyclin (hIP); U-46619 (hTP), depending on receptor). The peak fluorescence change in each drug-containing well was then expressed relative to the controls.
Compounds were tested in a high-throughput (HTS) or concentration-response (CoRe) format. […]

O=C(O)c1ccc(CCC[C@@H]2[C@@H](CCc3cc(F)cc(F)c3)[C@H](O)C[C@H]2Cl)s1 [11d, 5-(3-((1R,2R,3R,5R)-5-chloro-2-(3,5-difluorophenethyl)-3-hydroxycyclopentyl)propyl)thiophene-2-carboxylic acid]
EC50: 64 nM

From patent US7592366B2, “Therapeutic compounds” (Allergan, Inc., priority 2006, dated 2009)
